Measurements reported in patent US7364741B1, “Peptides of human Papilloma virus for use in human T cell response inducing compositions” (priority 1992, dated 2008).

Tests used:
HLA-A11.2 = experiment: Immunochemical peptide-MHC binding assay, purified HLA-A11.2, radiolabeled probe […]; parameters: species or system human; conditions: IC50 of standard divided by IC50 of tested peptide, cysteines synthesized as alanine
Text: (§1) The method utilizes purified class I molecules and radiolabeled synthetic probes based on consensus peptides. Competitor peptides tested for their binding to the class I molecules compete for this binding with the radiolabeled consensus peptides. The HLA-A1, A2.1, A3.2, A11.2, and A24 molecules were isolated from the following cell lines, respectively: the EBV (Eppstein Barr Virus) transformed cell line Steinlin, the EBV transformed cell line JY, the EBV transformed cell line GM3107, the cell line BVR and the EBV transformed cell line KT3. After large scale culture, cells were lysed in NP40 (Fluka Biochemika, Buchs, Switzerland) and the lysate was passed over two pre-columns of inactivated sepharose CL 4B and Prot A Sepharose. Class I molecules were then purified from the cell lysate by affinity chromatography using Prot A Sepharose beads conjugated with B2.23.2 (anti-HLA-B and HLA-C) and anti-human HLA. The lysate was first depleted of B and C molecules by repeated passage over the B2.23.2 column.
(§2) After two days at 23° C. the percent of MHC-bound radioactivity was measured by size exclusion chromatography on a TSK2000 gel filtration as described by Sette et al. (1992).
(§3) Probe peptides were iodinated by using the Chloramine T method described by Buus et al. (1987). The sequences of the probe peptides used for the aforementioned HLA molecules were […] (SEQ ID NO:76) for A1, […] (SEQ ID NO:77) for A2.1, […] (SEQ ID NO:78) for A3.2, […] (SEQ ID NO:79) for A11.2, and […] (SEQ ID NO:80) for A24.
(§4) Each competitor peptide was tested in two to four completely independent experiments. Since cysteine containing peptides are susceptible to (air) oxidation during synthesis and handling, these peptides were synthesized with an alanine instead of a cysteine.

HLA-A2.1 = molecular target: T1, HLA-A2.1 (Homo sapiens, UniProt P04439, D140Y/D185E/D98H/E176V/E277Q/G131W/G231S/I119V/I121R/I166T/I218V/L300P/L318F/N151K/N90K/P208A/P217A/Q86G/Q94H/R138H/R169H/T345S); assay type: cell-based; conditions: HPV16 peptides, 200 μg/ml peptide, 16 hours, 174CEM.T2 cells; for FI (Fluorescence Index): background set on 0, binding positive when ≧0.5
T1 construct: endogenous in cells; host or cells: 174CEM.T2
Method: Of all peptides a dilution of 1 mg/ml in 0.9% NaCl was made.
174CEM.T2 cells were cultured in Iscovel's modified Dulbecco's medium (Biochrom KG Seromed Berlin, Germany: F0465) supplemented with 100 IU/ml penicillin (Biocades Pharma, Leiderdorp, The Netherlands), 100 μg/ml kanamycin (Sigma St. Louis, USA:K-0254), 2 mM glutamine (ICN Biomedicals Inc. Costa Mesa, Calif., USA:15-801-55) and 10% fetal calf serum (FCS, Hyclone Laboratories Inc. Logan, Utah, USA:A-1115-L). Cells were cultured at a density of 2.5×10^5/ml during 3 days at 37° C., 5% CO2 in humified air.
174CEM.T2 cells were washed twice in culture medium without FCS and put in serum-free culture medium to a density of 2×10^6 cells/ml. Of this suspension 40 μl was put into a V bottomed 96 well plate (Greiner GmbH, Frickenhausen, Germany: 651101) together with 10 μl of the individual peptide dilutions (of 1 mg/ml). The end concentration is 200 μg/ml peptide with 8×10^4 174CEM.T2 cells. This solution was gently agitated for 3 minutes after which an incubation time of 16 hours at 37° C., 5% CO2 in humified air took place. Then cells were washed once with 100 μl 0.9% NaCl, 0.5% bovine serum albumin (Sigma St. Louis, USA: A-7409), 0.02% NaN3 (Merck Darmstadt, Germany:822335). After a centrifuge round of 1200 rpm the pellet was resuspended in 50 μl of saturating amounts of HLA-A2.1 specific mouse monoclonal antibody BB7.2 for 30 minutes at 4° C. Then cells were washed twice and incubated for 30 minutes with F(ab)2 fragments of goat anti-mouse IgG that had been conjugated with […] (Tago Inc Burlingame, Calif., USA: 4350) in a dilution of 1:40 and a total volume of 25 μl.
After the last incubation, cells were washed twice and fluorescence was measured at 488 nanometer on a FACScan flow-cytometer (Becton Dickinson, Franklin Lakes, N.J., USA).
The 174CEM.T2 cell line expresses “empty” and unstable HLA-A2.1 molecules that can be stabilized when a peptide is binding to the peptide presenting groove of these molecules. […] This leads to an increase in cell surface expression of the HLA-A2.1 molecule.
With background fluorescence level (without adding peptides) set on a Fluorescence Index level of 0, binding of a peptide was regarded positive when the level of fluorescence was ≧0.5.

HLA-A3.2 = molecular target: T2, HLA-A3.2 (Homo sapiens, UniProt P04439); assay type: binding; conditions: HLA-A3.2; IC50 of standard divided by IC50 of tested peptide; cysteines synthesized as alanine
T2 construct: endogenous in cells; host or cells: EBV transformed cell line GM3107 (protein purified from NP40 lysate)
Text: as §1, §2, §3, §4

HLA-A24 = experiment: Immunochemical peptide-MHC binding assay, purified HLA-A24, radiolabeled probe AYIDNYNKF; parameters: species or system human; conditions: IC50 of standard divided by IC50 of tested peptide, cysteines synthesized as alanine
Text: as §1, §2, §3, §4

HLA-A1 = molecular target: T3, HLA-A1 (Homo sapiens, UniProt P04439, A114D/A174V/A182V/D101N/E190D/Q94H/R68K/S129P/V100A/V91M/W191G); experiment: Immunochemical peptide-MHC binding assay, purified HLA-A1, radiolabeled probe YLEPAIAKY; conditions: IC50 of standard divided by IC50 of tested peptide, cysteines synthesized as alanine
T3 construct: endogenous in cells; host or cells: EBV transformed cell line Steinlin (protein purified from NP40 lysate)
Text: as §1, §2, §3, §4

T2 sequence (P04439 25-365): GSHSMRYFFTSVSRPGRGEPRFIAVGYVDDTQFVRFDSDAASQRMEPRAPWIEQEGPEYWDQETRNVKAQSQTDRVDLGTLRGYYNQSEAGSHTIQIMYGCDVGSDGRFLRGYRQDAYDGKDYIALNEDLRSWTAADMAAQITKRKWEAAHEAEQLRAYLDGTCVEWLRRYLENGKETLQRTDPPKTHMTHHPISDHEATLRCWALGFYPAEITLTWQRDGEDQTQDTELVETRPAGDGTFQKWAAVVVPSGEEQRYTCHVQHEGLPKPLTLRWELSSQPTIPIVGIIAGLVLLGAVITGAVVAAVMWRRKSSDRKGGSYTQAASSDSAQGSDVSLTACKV
T2 sequence (P61769 21-119, further chain): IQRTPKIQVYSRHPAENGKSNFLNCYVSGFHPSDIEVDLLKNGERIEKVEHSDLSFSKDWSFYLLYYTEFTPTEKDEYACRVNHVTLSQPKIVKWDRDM

CVYCKQQLL [HPV16 peptide 8, residues 37-45 of HPV16 protein E6]
binding ratio to standard (HLA-A11.2): 0.0450 | MF (mean HLA-A2.1 fluorescence) (HLA-A2.1): 195.0 | FI (Fluorescence Index) (HLA-A2.1): 2.0 | binding ratio to standard (HLA-A3.2): 0.0320

CYSLYGTTL [residues 87-95 of HPV16 protein E6]
binding ratio to standard (HLA-A24): 0.1200

EIDGPAGQA [residues 37-45 of HPV16 protein E7]
binding ratio to standard (HLA-A1): 0.025

EYRHYCYSL [residues 82-90 of HPV16 protein E6]
binding ratio to standard (HLA-A24): 0.0460

HVDIRTLED [residues 73-81 of HPV16 protein E7]
binding ratio to standard (HLA-A1): 0.014

HYCYSLYGT [residues 85-93 of HPV16 protein E6]
binding ratio to standard (HLA-A24): 0.0037

IVYRDGNPY [residues 59-67 of HPV16 protein E6]
binding ratio to standard (HLA-A11.2): 0.4700 | binding ratio to standard (HLA-A3.2): 3.0000

KCLKFYSKI [residues 72-80 of HPV16 protein E6]
binding ratio to standard (HLA-A24): 0.1100

KISEYRHYC [HPV16 peptide 9, residues 79-87 of HPV16 protein E6]
binding ratio to standard (HLA-A11.2): 0.0076 | MF (mean HLA-A2.1 fluorescence) (HLA-A2.1): 211.7 | FI (Fluorescence Index) (HLA-A2.1): 2.2 | binding ratio to standard (HLA-A3.2): 0.0044

LIRCINCQK [residues 107-115 of HPV16 protein E6]
binding ratio to standard (HLA-A11.2): 0.0120 | binding ratio to standard (HLA-A3.2): 3.7000

LLRREVYDF [residues 44-52 of HPV16 protein E6]
binding ratio to standard (HLA-A24): 0.0023

MHQKRTAMF [residues 1-9 of HPV16 protein E6]
binding ratio to standard (HLA-A24): 0.0049

MSCCRSSRT
binding ratio to standard (HLA-A1): 0.019

PYAVCDKCL [residues 66-74 of HPV16 protein E6]
binding ratio to standard (HLA-A24): 0.0055

QQLLRREVY [residues 42-50 of HPV16 protein E6]
binding ratio to standard (HLA-A11.2): 0.0084 | binding ratio to standard (HLA-A3.2): 0.0058

RAHYNIVTF [residues 49-57 of HPV16 protein E7]
binding ratio to standard (HLA-A24): 0.0670

RFHNIRGRW [residues 131-139 of HPV16 protein E6]
binding ratio to standard (HLA-A24): 0.1000

SCCRSSRTR [residues 145-153 of HPV16 protein E6]
binding ratio to standard (HLA-A11.2): 0.0330 | binding ratio to standard (HLA-A3.2): 0.0200

TTDLYCYEQ [residues 19-27 of HPV16 protein E7]
binding ratio to standard (HLA-A1): 0.023

VCDKCLKFY [residues 69-77 of HPV16 protein E6]
binding ratio to standard (HLA-A11.2): 0.0030 | binding ratio to standard (HLA-A3.2): 0.0025

VYCKQQLLR [residues 38-46 of HPV16 protein E6]
binding ratio to standard (HLA-A11.2): 0.0022 | binding ratio to standard (HLA-A24): 0.0011 | binding ratio to standard (HLA-A3.2): 0.0012

VYDFAFRDL [residues 49-57 of HPV16 protein E6]
binding ratio to standard (HLA-A24): 0.0610

WTGRCMSCC [residues 139-147 of HPV16 protein E6]
binding ratio to standard (HLA-A1): 0.020

YAVCDKCLK [residues 67-75 of HPV16 protein E6]
binding ratio to standard (HLA-A11.2): 0.0074 | binding ratio to standard (HLA-A3.2): 0.0012

YNIVTFCCK [residues 52-60 of HPV16 protein E7]
binding ratio to standard (HLA-A11.2): 0.0060 | binding ratio to standard (HLA-A3.2): 0.0067

YRDGNPYAV [residues 61-69 of HPV16 protein E6]
binding ratio to standard (HLA-A1): 0.008
